Reference: PubChem BioAssay (NCI)
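Step 1: Grow cells in 96-well plates. Step 2: Expose to compound for 48 hours at 5 concentrations. Step 3: Interpolate endpoints linearly; if unreached, use highest concentration. Here, GI50 denotes the concentration required for 50% inhibition of growth. TGI denotes the concentration required for complete inhibition of growth.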

What was measured:
Assay in all cases: NCI tumour cell line growth inhibition, 48 h
MALME-3M melanoma = system: MALME-3M melanoma
MOLT-4 leukemia = system: MOLT-4 leukemia
OVCAR-4 ovarian = system: OVCAR-4 ovarian
RXF 393 renal = system: RXF 393 renal
SF-295 CNS = system: SF-295 CNS
SF-539 CNS = system: SF-539 CNS
TK-10 renal = system: TK-10 renal
U251 CNS = system: U251 CNS
UACC-62 melanoma = system: UACC-62 melanoma
UO-31 renal = system: UO-31 renal

Cc1cc(C)c(S(=O)(=O)N(CCCN)OCCCN)c(C)c1
TGI (MALME-3M melanoma): > 100 µM | TGI (MOLT-4 leukemia): > 100 µM | TGI (OVCAR-4 ovarian): > 100 µM | TGI (RXF 393 renal): > 100 µM | TGI (SF-295 CNS): > 100 µM | TGI (SF-539 CNS): > 100 µM | TGI (TK-10 renal): > 100 µM | TGI (U251 CNS): > 100 µM | TGI (UACC-62 melanoma): > 100 µM | TGI (UO-31 renal): > 100 µM

CCN(CC)C(=S)SSCCO
GI50 (MALME-3M melanoma): 17.9 µM | TGI (MALME-3M melanoma): 35 µM | GI50 (MOLT-4 leukemia): 4.7 µM | TGI (MOLT-4 leukemia): 21.7 µM | GI50 (OVCAR-4 ovarian): 14.7 µM | TGI (OVCAR-4 ovarian): 27.9 µM | GI50 (RXF 393 renal): 19.4 µM | TGI (RXF 393 renal): 34.8 µM | GI50 (SF-295 CNS): 33.5 µM | TGI (SF-295 CNS): > 100 µM | GI50 (SF-539 CNS): 15.7 µM | TGI (SF-539 CNS): 29.1 µM | GI50 (TK-10 renal): 24 µM | TGI (TK-10 renal): 40.8 µM | GI50 (U251 CNS): 16.7 µM | TGI (U251 CNS): 37.5 µM | GI50 (UACC-62 melanoma): 15.3 µM | TGI (UACC-62 melanoma): 29.2 µM | GI50 (UO-31 renal): 15.8 µM | TGI (UO-31 renal): 32.3 µM

CC1CCN(c2cc(-c3cc4ccccc4o3)oc(=O)c2C#N)CC1
TGI (MALME-3M melanoma): > 100 µM | TGI (MOLT-4 leukemia): > 100 µM | TGI (OVCAR-4 ovarian): > 100 µM | TGI (RXF 393 renal): > 100 µM | TGI (SF-295 CNS): > 100 µM | TGI (SF-539 CNS): > 100 µM | TGI (TK-10 renal): > 100 µM | TGI (U251 CNS): > 100 µM | TGI (UO-31 renal): > 100 µM

Clc1ccc(-c2nnc(-c3nsc4ccccc34)o2)cc1
TGI (OVCAR-4 ovarian): 34.5 µM | TGI (RXF 393 renal): 99.4 µM | TGI (SF-539 CNS): 48.9 µM | TGI (TK-10 renal): 51.2 µM | TGI (U251 CNS): 33.5 µM | TGI (UACC-62 melanoma): > 100 µM | TGI (UO-31 renal): 47.5 µM

O=c1[nH]c(=S)[nH]c2c(C3OC(CO)C(O)C3O)nsc12 (centres undefined)
TGI (MALME-3M melanoma): > 100 µM | TGI (MOLT-4 leukemia): > 100 µM | TGI (OVCAR-4 ovarian): > 100 µM | TGI (RXF 393 renal): > 100 µM | TGI (SF-295 CNS): > 100 µM | TGI (SF-539 CNS): > 100 µM | TGI (TK-10 renal): > 100 µM | TGI (U251 CNS): > 100 µM | TGI (UACC-62 melanoma): > 100 µM

Clc1cccc(C2SCc3nc4ccccc4n32)c1 (centres undefined)
TGI (MALME-3M melanoma): 62.1 µM | TGI (MOLT-4 leukemia): > 100 µM | TGI (OVCAR-4 ovarian): > 100 µM | TGI (RXF 393 renal): 41.7 µM | TGI (SF-295 CNS): > 100 µM | TGI (SF-539 CNS): 48.2 µM | TGI (TK-10 renal): 63.9 µM | TGI (U251 CNS): 33 µM | TGI (UACC-62 melanoma): 36.5 µM

Fc1ccc(C(OCCN2CC3CC2CN3)c2ccc(F)cc2)cc1 (centres undefined)
TGI (MALME-3M melanoma): 32.3 µM | TGI (MOLT-4 leukemia): > 100 µM | TGI (OVCAR-4 ovarian): > 100 µM | TGI (RXF 393 renal): > 100 µM | TGI (SF-295 CNS): > 100 µM | TGI (SF-539 CNS): > 100 µM | TGI (TK-10 renal): > 100 µM | TGI (U251 CNS): > 100 µM | TGI (UACC-62 melanoma): 37.3 µM

CC(C)(CC1(C)NC(=O)NC1=O)OCc1ccccc1 (centres undefined)
TGI (MALME-3M melanoma): > 100 µM | TGI (OVCAR-4 ovarian): > 100 µM | TGI (RXF 393 renal): > 100 µM | TGI (SF-295 CNS): > 100 µM | TGI (TK-10 renal): > 100 µM | TGI (U251 CNS): > 100 µM | TGI (UACC-62 melanoma): > 100 µM | TGI (UO-31 renal): > 100 µM

CCOC(=O)[C@H]1Nc2c(cccc2[N+](=O)[O-])C2c3ccccc3CC21 (some centres undefined)
TGI (MALME-3M melanoma): > 100 µM | TGI (MOLT-4 leukemia): > 100 µM | TGI (OVCAR-4 ovarian): > 100 µM | TGI (RXF 393 renal): 45.8 µM | TGI (SF-295 CNS): > 100 µM | TGI (SF-539 CNS): > 100 µM | TGI (TK-10 renal): > 100 µM | TGI (U251 CNS): > 100 µM | TGI (UACC-62 melanoma): > 100 µM | TGI (UO-31 renal): > 100 µM

CCOc1cc(/C=C/C(=O)CC(=O)/C=C/c2ccc(OC(=O)CNCCN(CC)CC)c(OCC)c2)ccc1OC(=O)CNCCN(CC)CC
GI50 (MALME-3M melanoma): 1.91 µM | TGI (MALME-3M melanoma): 4.12 µM | GI50 (MOLT-4 leukemia): 0.531 µM | TGI (MOLT-4 leukemia): 2.72 µM | GI50 (OVCAR-4 ovarian): 4.35 µM | TGI (OVCAR-4 ovarian): > 100 µM | GI50 (RXF 393 renal): 0.681 µM | TGI (RXF 393 renal): 2.03 µM | GI50 (SF-295 CNS): 6.26 µM | TGI (SF-295 CNS): 23.4 µM | GI50 (SF-539 CNS): 1.38 µM | TGI (SF-539 CNS): 3.1 µM | GI50 (TK-10 renal): 2.6 µM | TGI (TK-10 renal): 6.38 µM | GI50 (U251 CNS): 1.27 µM | TGI (U251 CNS): 2.82 µM | GI50 (UACC-62 melanoma): 1.53 µM | TGI (UACC-62 melanoma): 3.16 µM | GI50 (UO-31 renal): 1.7 µM | TGI (UO-31 renal): 3.82 µM

CC1=NN(C(=O)c2ccc(C)cc2)C(=O)C1N=Nc1ccccc1C(=O)O (centres undefined)
TGI (MALME-3M melanoma): > 100 µM | TGI (MOLT-4 leukemia): > 100 µM | TGI (OVCAR-4 ovarian): > 100 µM | TGI (RXF 393 renal): > 100 µM | TGI (SF-295 CNS): > 100 µM | TGI (SF-539 CNS): > 100 µM | TGI (U251 CNS): > 100 µM | TGI (UACC-62 melanoma): > 100 µM | TGI (UO-31 renal): > 100 µM

N/C(=N\N=C/c1cc([N+](=O)[O-])cc([N+](=O)[O-])c1O)NO
TGI (MALME-3M melanoma): > 100 µM | TGI (MOLT-4 leukemia): > 100 µM | TGI (OVCAR-4 ovarian): > 100 µM | TGI (RXF 393 renal): > 100 µM | TGI (SF-295 CNS): > 100 µM | TGI (SF-539 CNS): > 100 µM | TGI (U251 CNS): > 100 µM | TGI (UACC-62 melanoma): > 31.1 µM | TGI (UO-31 renal): > 100 µM

Cc1ccc2oc3c(ccc(=O)n3C)c(=O)c2c1
TGI (MALME-3M melanoma): > 100 µM | TGI (OVCAR-4 ovarian): > 100 µM | TGI (RXF 393 renal): > 100 µM | TGI (SF-295 CNS): > 100 µM | TGI (SF-539 CNS): > 100 µM | TGI (TK-10 renal): > 100 µM | TGI (U251 CNS): > 100 µM | TGI (UACC-62 melanoma): > 100 µM | TGI (UO-31 renal): > 100 µM

c1csc(C(NC2=NCCO2)C2CC2)c1 (centres undefined)
TGI (MOLT-4 leukemia): > 100 µM | TGI (OVCAR-4 ovarian): > 100 µM | TGI (RXF 393 renal): > 100 µM | TGI (SF-295 CNS): > 100 µM | TGI (SF-539 CNS): > 100 µM | TGI (U251 CNS): > 100 µM | TGI (UACC-62 melanoma): > 100 µM | TGI (UO-31 renal): > 100 µM

CO/C(=N\N=C(/c1ccccc1)C(F)(F)F)c1ccncc1
TGI (MALME-3M melanoma): > 100 µM | TGI (MOLT-4 leukemia): > 100 µM | TGI (OVCAR-4 ovarian): > 100 µM | TGI (RXF 393 renal): > 100 µM | TGI (SF-295 CNS): > 100 µM | TGI (U251 CNS): > 100 µM | TGI (UACC-62 melanoma): > 100 µM | TGI (UO-31 renal): > 100 µM
